This is an account of results in patent publication US8415376B2, “Inhibitors of PI3 kinase” (Amgen Inc., priority 2008, dated 2013).

For test [1], the system named is phosphorylation of Akt at Serine 473. Put plainly: pAkt AlphaScreen (U87 cell). The test is classed as cell-based. The settings on record: Homo sapiens, U-87 MG; U87 MG cells, pAkt Ser473; average. The procedure: pAkt Alphascreen (U87 Cell)
The pAkt AlphaScreen® assay (PerkinElmer, Waltham, Mass.) determines whether there is phosphorylation of Akt at Serine 473 by recruitment of a phosphospecific antibody. This assay was performed using U87 MG cells. The U87 growth media consists of MEM (Gibco, Carlsbad, Calif.) supplemented with 10% FBS (Gibco,), 1× Non-Essential Amino Acids (Gibco,) and 1× Penicillin/Streptomycin/Glutamine (Gibco). The cells were maintained weekly using 0.05% Trypsin (Gibco) and replated in 150 mm TC-Treated Culture Dishes (Corning, Corning, N.Y.).
The first day of the assay, the adherent cells were trypsinized, media was added to the loose cells and cells were mixed to a homogenous mixture. 0.5 ml of the homogenous mixture was counted on the Beckman Coulter® Vi-CELL™ XR (Fullerton, Calif.). 50 frames of cells were counted and the number of viable cells was determined. The cells were then diluted to 0.25 million cells per ml, and centrifuged at 200 rcf for 5 minutes. The media was removed and the cells were reconstituted in fresh media for plating. The cells were plated at 20 μl per well on the PerkinElmer® FlexDrop PLUS in Low Volume 384 Well White Tissue Culture Plates (Corning) with a final cell density of 5K cells per well. The plates were incubated overnight at 37° Celsius, 5% CO2.
On the second day, the compound plates were prepared, the cells were treated with compound and the pAkt reaction mix was added to the cell lysate. 384 well compound plates were prepared containing 1 μl of compound per well starting at 5 mM and diluted 1:2 across the row, resulting in a 22 well serial dilution. 39 μl of growth media was added to the compound plate in rows 1-22 using the PerkinElmer® FlexDrop PLUS resulting in a DMSO concentration of 2.5%. The cell plates and diluted compound plates were put onto the VELOCITY11™ VPREP™ 384 ST where the compound plate was mixed and 5 μl of serially diluted compound or controls was added to the cell plate. The final concentration of the compounds was 25 μM serially diluted to 11.9 pM in 0.5% DMSO. The cell plates were then incubated with compound for two hours at 37° Celsius, 5% CO2. After two hours, the media in the cell plates was aspirated using the BioTek® ELx405HT plate washer (Winooski, Vt.) removing the majority of media and compound without disturbing the adherent U87 cells. The following assay reagents are components of the SureFire® Akt (Ser 473) Phosphorylation 50K Point Kit (TGR BioSciences, Adelaide, Austalia) and an IgG Detection Kit (PerkinElmer, Waltham, Mass.). 5 μl of 1× Lysis Buffer was added to each well using the PerkinElmer® FlexDrop PLUS. The plates were then incubated at room temperature on a shaker for ten minutes. The AlphaScreen® reaction was prepared under low light conditions (subdued or green light) including p-Akt (Ser 473) Reaction Buffer, Dilution Buffer, Activation Buffer, Acceptor Beads and Donor Beads at a ratio of 40:20:10:1:1 respectively. The AlphaScreen® reaction was added to the cell lysate at 6 μl per well using the PerkinElmer® FlexDrop PLUS. The plates were placed in a humid environment to reduce edge effects and incubated overnight at room temperature with restricted air flow in the dark.
On the final day of the experiment, the plates were read on the PerkinElmer® EnVision™ 2103 Multilable Reader using the standard AlphaScreen® readout. The POC is calculated and the data is analyzed to report the IC50 IP for pAkt at Serine 473.
Activity data for the compounds tested in the PI3K cell based Akt assay is provided in Table 2 under the column heading U87
(In general: Alpha assays give light when donor and acceptor beads are brought close together.)

Another test has as its target T1, mTOR (Homo sapiens, UniProt P42345).
T1 construct: purchased Invitrogen (Carlsbad, Calif.)
Put plainly: In vitro mTOR assay (Lanthascreen). It counts as biochemical. The conditions noted are these: average if run more than once. Summed up: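 mTOR activity measured by TR-FRET as Thr46 phosphorylation of GFP-4E-BP1, detected with Tb-labelled anti-phospho-4E-BP1 [T46] antibody after EDTA stop. Final 50 ng/mL mTOR, 400 nM GFP-4E-BP1, 7 μM ATP in HEPES pH 7.5 with 10 mM MnCl2; 1 h, room temperature. 10-point 1:3 compound series.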
For orientation: TR-FRET usually uses a lanthanide donor and a delayed reading to cut background.

The next test addresses T2, PI3Kα (Homo sapiens, UniProt P42336).
T2 construct: Full length p110 subunits of PI3K α, β and δ, N-terminally labeled with polyHis tag; polyHis (N); made in house; host or cells: Sf9 insect cells (baculovirus)
The experiment in a line: In vitro PI3K AlphaScreen assay. It counts as biochemical. The settings on record: average if run more than once.

T2 sequence (P42336 whole entry): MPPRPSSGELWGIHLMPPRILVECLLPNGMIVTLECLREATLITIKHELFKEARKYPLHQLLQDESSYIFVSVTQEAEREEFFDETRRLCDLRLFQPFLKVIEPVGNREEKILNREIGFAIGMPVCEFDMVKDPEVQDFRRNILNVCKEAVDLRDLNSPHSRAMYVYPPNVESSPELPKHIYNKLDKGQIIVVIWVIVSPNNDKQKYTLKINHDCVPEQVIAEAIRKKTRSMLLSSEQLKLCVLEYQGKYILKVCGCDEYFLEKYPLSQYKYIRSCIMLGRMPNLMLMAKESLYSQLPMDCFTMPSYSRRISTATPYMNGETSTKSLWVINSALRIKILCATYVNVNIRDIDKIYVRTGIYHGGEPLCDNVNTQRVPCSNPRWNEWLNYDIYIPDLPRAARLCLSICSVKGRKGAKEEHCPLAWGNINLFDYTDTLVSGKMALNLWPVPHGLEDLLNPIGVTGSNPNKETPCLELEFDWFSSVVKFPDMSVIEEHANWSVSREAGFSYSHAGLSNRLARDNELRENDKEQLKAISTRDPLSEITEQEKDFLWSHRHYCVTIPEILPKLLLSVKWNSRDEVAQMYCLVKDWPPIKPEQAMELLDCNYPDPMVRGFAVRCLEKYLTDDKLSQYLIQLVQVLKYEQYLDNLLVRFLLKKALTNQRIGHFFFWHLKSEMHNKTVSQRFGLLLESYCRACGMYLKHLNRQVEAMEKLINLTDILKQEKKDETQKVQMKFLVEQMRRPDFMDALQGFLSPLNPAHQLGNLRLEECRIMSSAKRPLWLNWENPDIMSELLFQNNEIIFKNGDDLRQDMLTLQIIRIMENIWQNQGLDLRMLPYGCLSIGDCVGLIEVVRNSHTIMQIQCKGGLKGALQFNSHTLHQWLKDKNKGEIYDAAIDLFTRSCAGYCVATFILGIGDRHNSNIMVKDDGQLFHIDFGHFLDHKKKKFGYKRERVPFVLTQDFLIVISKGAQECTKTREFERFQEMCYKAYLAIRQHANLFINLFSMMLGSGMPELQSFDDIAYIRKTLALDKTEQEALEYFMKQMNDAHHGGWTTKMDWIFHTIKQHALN
T2 sequence (P27986 whole entry partner): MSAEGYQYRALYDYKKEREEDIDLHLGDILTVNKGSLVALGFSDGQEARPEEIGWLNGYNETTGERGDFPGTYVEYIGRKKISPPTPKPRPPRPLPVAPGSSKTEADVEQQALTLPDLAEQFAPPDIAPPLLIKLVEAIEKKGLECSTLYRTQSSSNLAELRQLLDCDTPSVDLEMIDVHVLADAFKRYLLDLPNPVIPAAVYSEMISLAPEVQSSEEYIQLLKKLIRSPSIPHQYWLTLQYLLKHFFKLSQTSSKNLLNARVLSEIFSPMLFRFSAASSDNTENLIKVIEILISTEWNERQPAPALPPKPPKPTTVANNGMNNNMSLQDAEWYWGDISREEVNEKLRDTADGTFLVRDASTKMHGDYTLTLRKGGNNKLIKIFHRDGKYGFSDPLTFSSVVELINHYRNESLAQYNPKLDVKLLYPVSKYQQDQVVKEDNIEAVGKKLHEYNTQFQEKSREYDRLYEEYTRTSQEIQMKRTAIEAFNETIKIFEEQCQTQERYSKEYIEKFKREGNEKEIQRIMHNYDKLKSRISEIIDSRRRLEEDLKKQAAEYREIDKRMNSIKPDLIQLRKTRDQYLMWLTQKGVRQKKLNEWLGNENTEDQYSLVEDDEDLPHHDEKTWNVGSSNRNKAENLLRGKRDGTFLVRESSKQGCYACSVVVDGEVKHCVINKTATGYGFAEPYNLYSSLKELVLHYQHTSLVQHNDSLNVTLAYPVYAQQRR
T1 sequence (P42345 1360-2549 limits assumed): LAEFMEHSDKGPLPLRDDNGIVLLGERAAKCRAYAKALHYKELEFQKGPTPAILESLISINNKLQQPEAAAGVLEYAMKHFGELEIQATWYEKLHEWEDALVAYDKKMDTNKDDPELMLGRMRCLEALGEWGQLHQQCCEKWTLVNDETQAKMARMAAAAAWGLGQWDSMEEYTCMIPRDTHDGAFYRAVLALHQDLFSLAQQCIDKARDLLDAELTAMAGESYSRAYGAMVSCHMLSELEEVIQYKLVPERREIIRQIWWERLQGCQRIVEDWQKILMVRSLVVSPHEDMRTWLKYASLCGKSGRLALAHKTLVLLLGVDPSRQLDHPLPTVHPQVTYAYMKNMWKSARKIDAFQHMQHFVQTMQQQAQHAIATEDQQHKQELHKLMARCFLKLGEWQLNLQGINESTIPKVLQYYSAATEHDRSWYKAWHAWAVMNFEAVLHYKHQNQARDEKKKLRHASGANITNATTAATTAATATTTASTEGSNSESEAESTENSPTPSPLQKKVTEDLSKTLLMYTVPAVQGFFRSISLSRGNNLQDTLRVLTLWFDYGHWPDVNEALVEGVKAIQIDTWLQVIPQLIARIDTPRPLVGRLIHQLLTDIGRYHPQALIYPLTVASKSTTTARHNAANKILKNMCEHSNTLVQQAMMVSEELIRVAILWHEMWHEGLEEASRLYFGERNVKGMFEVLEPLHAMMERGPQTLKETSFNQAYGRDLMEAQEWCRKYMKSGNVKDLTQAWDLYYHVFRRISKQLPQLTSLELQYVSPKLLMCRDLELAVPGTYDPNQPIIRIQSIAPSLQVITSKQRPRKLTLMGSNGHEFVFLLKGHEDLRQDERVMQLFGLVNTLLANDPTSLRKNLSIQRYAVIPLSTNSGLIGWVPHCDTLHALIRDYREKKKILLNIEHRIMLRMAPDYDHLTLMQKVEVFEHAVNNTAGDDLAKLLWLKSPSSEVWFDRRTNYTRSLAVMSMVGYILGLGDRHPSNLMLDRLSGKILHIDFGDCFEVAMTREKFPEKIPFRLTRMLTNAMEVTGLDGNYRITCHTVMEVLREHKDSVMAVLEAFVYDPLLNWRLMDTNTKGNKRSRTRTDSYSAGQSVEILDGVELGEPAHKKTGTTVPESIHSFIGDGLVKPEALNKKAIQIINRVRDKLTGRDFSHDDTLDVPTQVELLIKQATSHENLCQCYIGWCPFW
Procedure for PI3Kα: In Vitro PI3K Alphascreen® Assay
The PI3K AlphaScreen® assay (PerkinElmer, Waltham, Mass.) measures the activity of a panel of four phosphoinositide 3-kinases: PI3Kα, PI3Kβ, PI3Kγ, and PI3Kδ. Each of these enzymes phosphorylates the 3′-hydroxyl group on phosphatidylinositiol (4,5)-bisphosphate (PIP2) to produce phosphatidylinositol (3,4,5)-trisphosphate (PIP3). This phosphorylation activity is measured using a GST-tagged PIP3 binding protein (Echelon Biosciences, Salt Lake City, Utah), an anti-GST-tagged Acceptor bead, and streptavidin-Donor bead. […] In the absence of this interaction, proximity of the Donor and Acceptor beads is decreased, producing a loss of luminescent signal which is inversely proportional to PI3K activity.
The enzyme reaction buffer is made using sterile water (Baxter, Deerfield, Ill.) and 50 mM Tris HCl pH 7, 14 mM MgCl2, 2 mM sodium cholate, and 100 mM NaCl. 2 mM DTT is added fresh the day of the experiment. The AlphaScreen® reaction buffer is made using sterile water and 10 mM Tris HCl pH 7.5, 150 mM NaCl, 0.10% Tween 20, and 30 mM EDTA. 1 mM DTT is added fresh the day of the experiment.
The source plates for this assay are 384-well Greiner clear polypropylene plates containing test compounds at 5mM and diluted 1:2 over 22 points. […] Source plates are replicated into 384-well Optiplates (PerkinElmer, Waltham, Mass.), 0.5 μL/well, to make assay-ready plates.
The different PI3K isoforms are each diluted in enzyme reaction buffer to 2× working solutions. […] Two different 2× substrate solutions are made in enzyme reaction buffer. In one solution, PI(4,5)P2 (Echelon Biosciences, Salt Lake City, Utah) is diluted to 10 μM and ATP is diluted to 20 μM. This solution is used in the assays testing PI3Kα and PI3Kβ. In a second solution, PI(4,5)P2 is diluted to 10 μM and ATP is diluted to 8 μM. This solution used in the assays testing PI3Kγ and PI3Kδ.
The AlphaScreen® reaction solutions are made using beads from the anti-GST AlphaScreen® kit (PerkinElmer, Waltham, Mass.). Two solutions are made in Alphascreen reaction buffer to 4× working concentrations. In one solution, biotinylated-IP4 (Echelon Biosciences, Salt Lake City, Utah) is diluted to 40 nM and streptavadin-Donor Beads are diluted to 80 μg/mL. In the second solution, PIP3-binding protein (Echelon Biosciences, Salt Lake City, Utah) is diluted to 40 nM and anti-GST-Acceptor Beads are diluted to 80 μg/mL. 10 μL/well of enzyme reaction buffer is added to Column 24 of the assay ready plates in place of enzyme. This is done for plates in the PI3Kα, β, and 67 assays.
Using a 384-well dispensing Multidrop (Titertek, Huntsville, Ala.), 10 μL/well of 2× enzyme (PI3Kα, β, δ) is added to Columns 1-23 of the appropriate assay ready plates (for PI3Kγ 10 μL is added to Columns 1-24). 10 μL/well of the appropriate substrate solution (the solution with 20 μM ATP for PI3Kα and β assays, and the solution with 8 μM ATP for PI3Kγ and δ assays) is then added to Columns 1-24 of the plates. Plates are then incubated at room temperature for 20 minutes.
In the dark, 10 μL/well of the Donor Bead solution is added to Columns 1-24 of the plates to quench the enzyme reaction. The plates are incubated at room temperature for 30 minutes. Still in the dark, 10 μL/well of the Acceptor Bead solution is also added to Columns 1-24 of the plates. The plates are then incubated in the dark for 1.5 hours. The plates are read on an Envision Multilabel Plate Reader (PerkinElmer, Waltham, Mass.) with a 680 nm excitation filter and a 520-620 nm emission filter.

The IC50 is the concentration that inhibits the measured activity by half. High values mean weaker potency in that assay, low ones greater potency in that assay. As usually defined, the Ki is a dissociation constant, usually derived from enzyme kinetics or from competition with a known ligand. The low end stands for higher affinity, the high end for lower affinity. `CS(=O)(=O)Nc1cc(-c2ccc3nccc(-c4ccncc4)c3c2)cnc1Cl` [Example 118, N-(2-Chloro-5-(4-(pyridin-4-yl)quinolin-6-yl)pyridin-3-yl)methanesulfonamide]: the IC50 in test [1] came to 0.0127 µM; at mTOR it was 0.0012 µM. On PI3Kα, this compound yielded a Ki of 0.0011 µM.

In the case of `COc1ncc(-c2ccc3nccc(-c4ccncc4)c3c2)cc1NS(C)(=O)=O` [Example 120, N-(2-Methoxy-5-(4-(pyridin-4-yl)quinolin-6-yl)pyridin-3-yl)methanesulfonamide], the IC50 in test [1] was 0.0147 µM; on mTOR it was 0.0048 µM. Moreover, affinity at PI3Kα was put at a Ki of 0.0035 µM.

As to `CS(=O)(=O)Nc1cc(-c2ccc3nccc(N4CCC(c5ccccc5)CC4)c3c2)cnc1Cl` [Example 82, N-(2-chloro-5-(4-(4-phenyl-1-piperidinyl)-6-quinolinyl)-3-pyridinyl)methanesulfonamide], the results for the IC50 (in test [1]; against mTOR) were 0.364 µM and 0.0167 µM, respectively. At PI3Kα, this compound gave a Ki of 0.0052 µM.

`CN(C)S(=O)(=O)Nc1cc(-c2ccc3ncc(=O)n(-c4cccc(C(F)(F)F)c4)c3c2)cnc1Cl` [Example 133, N-(2-chloro-5-(3-oxo-4-(3-(trifluoromethyl)phenyl)-3,4-dihydroquinoxalin-6-yl)pyridin-3-yl)dimethylaminosulfonamide]: the results for the IC50 (in test [1]; on mTOR) were 0.0094 µM and 0.0005 µM, respectively. At PI3Kα, this compound yielded a Ki of 0.0023 µM.

For the compound `O=S(=O)(Nc1cc(-c2ccc3nccc(N4CCOCC4)c3c2)cnc1Cl)c1cccnc1` [Example 101, N-(2-chloro-5-(4-(4-morpholinyl)-6-quinolinyl)-3-pyridinyl)-3-pyridinesulfonamide], the values for the IC50 (in test [1]; against mTOR) were 0.0762 µM and 0.0036 µM, respectively. The inhibition constant Ki at PI3Kα was determined as 0.0027 µM.

For `COCC1CCCN1c1ccnc2ccc(-c3cnc(Cl)c(NS(C)(=O)=O)c3)cc12` (stereo not drawn) [Example 81, N-(2-chloro-5-(4-(2-(methoxymethyl)-1-pyrrolidinyl)-6-quinolinyl)-3-pyridinyl)methanesulfonamide], the IC50 came out at 2.71 µM in test [1] and 2.74 µM at mTOR. The compound also came in with an inhibitory constant (Ki) at PI3Kα of 0.368 µM.

`COc1cc(-c2ccnc3ccc(-c4cnc(Cl)c(NS(C)(=O)=O)c4)cc23)ccn1` [Example 106, N-(2-chloro-5-(4-(2-methoxy-4-pyridinyl)-6-quinolinyl)-3-pyridinyl)methanesulfonamide]: the IC50 was found to be 0.0259 µM in test [1] and 0.0034 µM against mTOR. Moreover, the Ki at PI3Kα came out at 0.0019 µM.

Take `CS(=O)(=O)Nc1cc(-c2ccc3nccc(-c4ccc(C(F)(F)F)nc4)c3c2)cnc1Cl` [Example 112, N-(2-chloro-5-(4-(6-(trifluoromethyl)-3-pyridinyl)-6-quinolinyl)-3-pyridinyl)methanesulfonamide]: the IC50 is 0.0091 µM in test [1] and 0.0021 µM on mTOR. This compound also had a Ki at PI3Kα of 0.0021 µM.

On to `CS(=O)(=O)Nc1cc(-c2ccc3ncc(N4CCOCC4)nc3c2)cnc1Cl` [Example 92, N-(2-chloro-5-(3-(4-morpholinyl)-6-quinoxalinyl)-3-pyridinyl)methanesulfonamide], for which the IC50 in test [1] was found to be 0.084 µM; against mTOR, 0.0283 µM. The affinity on PI3Kα corresponds to a Ki of 0.0028 µM.

In the case of `COCCN(C)S(=O)(=O)Nc1cc(-c2ccc3ncc(=O)n(-c4cccc(C(F)(F)F)c4)c3c2)cnc1Cl` [Example 134, N-(2-Chloro-5-(3-oxo-4-(3-(trifluoromethyl)phenyl)-3,4-dihydroquinoxalin-6-yl)pyridin-3-yl) 2-methoxy-N-methylethanamino sulfonamide], the IC50 in test [1] worked out at 0.0283 µM; against mTOR, 0.0042 µM. Besides, the affinity at PI3Kα, expressed as Ki, was 0.0185 µM.

For `CN(C)c1ccc(-c2ccnc3ccc(-c4cnc(Cl)c(NS(=O)(=O)c5ccc(F)cc5)c4)cc23)cc1` [Example 102, N-(2-chloro-5-(4-(4-(dimethylamino)phenyl)-6-quinolinyl)-3-pyridinyl)-4-fluorobenzenesulfonamide], the results for the concentration for half-maximal inhibition (IC50) (in test [1]; against mTOR) were 0.0641 µM and 0.0153 µM, respectively. Besides, the affinity on PI3Kα corresponds to a Ki of 0.0013 µM.

`Cc1ccccc1OC1CCN(c2ccnc3ccc(-c4cnc(Cl)c(NS(C)(=O)=O)c4)cc23)C1` (stereo not drawn) [Example 80, N-(2-chloro-5-(4-(3-(2-methylphenoxy)-1-pyrrolidinyl)-6-quinolinyl)-3-pyridinyl)methanesulfonamide]: the IC50 in test [1] came to 0.704 µM; at mTOR, 0.389 µM. Moreover, at PI3Kα, the Ki was found to be 0.0294 µM.

For the compound `C[C@H]1CN(c2ccnc3ccc(-c4cnc(Cl)c(NS(C)(=O)=O)c4)cc23)C[C@H](C)O1` [Example 109, N-(2-chloro-5-(4-((2S,6S)-2,6-dimethyl-4-morpholinyl)-6-quinolinyl)-3-pyridinyl)methanesulfonamide], the 50% inhibitory concentration (IC50) in test [1] turned out to be 0.0214 µM; at mTOR, 0.0137 µM. The compound also came in with an inhibition constant Ki at PI3Kα of 0.0032 µM.

Consider `O=S(=O)(Nc1cc(-c2ccc3nccc(N4CCOCC4)c3c2)cnc1Cl)N1CCOCC1` [Example 124, N-(2-chloro-5-(4-morpholinoquinolin-6-yl)pyridin-3-yl)morpholine-4-sulfonamide], for which the IC50 in test [1] came to 0.0399 µM; at mTOR it was 0.0143 µM. The affinity at PI3Kα, expressed as Ki, was 0.0046 µM.

Regarding `COCCN(C)c1ccnc2ccc(-c3cnc(Cl)c(NS(=O)(=O)N(C)CCOC)c3)cc12` [Example 126, N′-(2-chloro-5-(4-((2-methoxyethyl)(methyl)amino)-6-quinolinyl)-3-pyridinyl)-N-(2-methoxyethyl)-N-methylsulfamide], the figures for the half-inhibitory concentration (IC50) (in test [1]; against mTOR) were 0.669 µM and 0.134 µM, respectively. The compound also yielded a Ki at PI3Kα of 0.0801 µM.

As to `CS(=O)(=O)Nc1cc(-c2ccc3nccc(NC4CCNCC4)c3c2)cnc1Cl` [Example 88, N-(2-chloro-5-(4-(4-piperidinylamino)-6-quinolinyl)-3-pyridinyl)methanesulfonamide], the values for the IC50 (in test [1]; at mTOR) were 6.84 µM and 1.77 µM, respectively. The compound further had an inhibition constant (Ki) at PI3Kα of 0.161 µM.

Take `COc1ccc(OC)c(CNc2ccnc3ccc(-c4cnc(Cl)c(NS(C)(=O)=O)c4)cc23)c1` [Example 87, N-(2-chloro-5-(4-((2,5-dimethoxybenzyl)amino)-6-quinolinyl)-3-pyridinyl)methanesulfonamide]: the IC50 in test [1] came out at 1.42 µM; on mTOR it was 0.295 µM. On PI3Kα, the inhibitory constant (Ki) was 0.0332 µM.

Consider `CS(=O)(=O)Nc1cc(-c2ccc3nccc(C4=CCOCC4)c3c2)cnc1Cl` [Example 107, N-(2-chloro-5-(4-(3,6-dihydro-2H-pyran-4-yl)-6-quinolinyl)-3-pyridinyl)methanesulfonamide], for which the figures for the IC50 (in test [1]; on mTOR) were 0.0198 µM and 0.004 µM, respectively. The compound also yielded a Ki on PI3Kα of 0.0017 µM.

On to `COCCN(C)S(=O)(=O)Nc1cc(-c2ccc3ncc(=O)n(-c4ccccc4)c3c2)cnc1Cl` [Example 131, N-(2-chloro-5-(3-oxo-4-phenyl-3,4-dihydroquinoxalin-6-yl)pyridin-3-yl) 2-methoxy-N-methylethanaminosulfonamide], for which the IC50 in test [1] stood at 0.0092 µM; on mTOR it was 0.0076 µM. Moreover, the Ki on PI3Kα stood at 0.0032 µM.

On to `CN(C)S(=O)(=O)Nc1cc(-c2ccc3nccc(N4CCOCC4)c3c2)cnc1Cl` [Example 122, N′-(2-Chloro-5-(4-(4-morpholinyl)-6-quinolinyl)-3-pyridinyl)-N,N-dimethylsulfamide], for which the IC50 in test [1] is 0.0163 µM; at mTOR it was 0.0182 µM. This compound had a Ki at PI3Kα of 0.0065 µM.
